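Dose response: 5 concentrations. Exposure: 48 h. Format: 96-well plates. Endpoint: linear interpolation; highest concentration if not reached. At the TGI there is no net growth.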
Key:
Assay in all cases: NCI anticancer screen, dose series, 48 h
[1] = tested on: A549 NSCLC
[2] = tested on: HOP-62 NSCLC
[3] = tested on: CAKI-1 renal
[4] = tested on: SN12C renal
[5] = tested on: SF-295 CNS
[6] = tested on: UO-31 renal
[7] = tested on: RXF 393 renal
[8] = tested on: OVCAR-8 ovarian
[9] = tested on: KM12 colon
[10] = tested on: M14 melanoma
[11] = tested on: BT-549 breast
[12] = tested on: SK-MEL-28 melanoma
[13] = tested on: SK-MEL-5 melanoma
[14] = tested on: HCT-116 colon
[15] = tested on: MDA-MB-435
[16] = tested on: NCI-H460 lung
[17] = tested on: HCT-15 colon
[18] = tested on: NCI-H23 lung
[19] = tested on: U251 CNS
[20] = tested on: NCI-H522 lung
[21] = tested on: SF-539 CNS
[22] = tested on: A498 renal
[23] = tested on: RPMI-8226 leukemia
[24] = tested on: T-47D breast
[25] = tested on: OVCAR-4 ovarian
[26] = tested on: K-562 leukemia
[27] = tested on: LOX IMVI melanoma
[28] = tested on: IGROV1 ovarian
[29] = tested on: OVCAR-5 ovarian
[30] = tested on: HCC-2998 colon
[31] = tested on: HL-60(TB) leukemia
[32] = tested on: SW-620 colon
[33] = tested on: SK-MEL-2 melanoma
[34] = tested on: NCI-H226 lung
[35] = tested on: EKVX NSCLC
[36] = tested on: PC-3 prostate
[37] = tested on: MOLT-4 leukemia
[38] = tested on: ACHN renal
[39] = tested on: NCI/ADR-RES ovarian
[40] = tested on: SNB-75 CNS
[41] = tested on: UACC-257 melanoma
[42] = tested on: MCF7 breast
[43] = tested on: HT29 colon
[44] = tested on: SF-268 CNS
[45] = tested on: MDA-N
[46] = tested on: SK-OV-3 ovarian
[47] = tested on: CCRF-CEM leukemia
[48] = tested on: SR leukemia
[49] = tested on: MALME-3M melanoma
[50] = tested on: UACC-62 melanoma
[51] = tested on: 786-0 renal
[52] = tested on: TK-10 renal
[53] = tested on: HOP-92 NSCLC
[54] = tested on: DU-145 prostate
[55] = tested on: HS 578T breast
[56] = tested on: OVCAR-3 ovarian
[57] = tested on: COLO 205 colon
[58] = tested on: SNB-19 CNS
[59] = tested on: MDA-MB-231 breast

CCOC(=O)/C(=C\NCc1ccc2c(c1)OCO2)c1nc2ccccc2[nH]1
TGI [1]: > 100 µM
TGI [2]: > 100 µM
TGI [3]: > 100 µM
TGI [4]: > 100 µM
TGI [5]: > 100 µM
TGI [6]: > 100 µM
TGI [7]: > 100 µM
TGI [8]: > 100 µM
TGI [9]: > 100 µM
TGI [10]: > 100 µM
TGI [11]: > 100 µM
TGI [12]: > 100 µM
TGI [13]: > 100 µM
TGI [14]: > 100 µM
TGI [15]: > 100 µM
TGI [16]: > 100 µM
TGI [17]: > 100 µM
TGI [18]: > 100 µM
TGI [19]: > 100 µM
TGI [20]: > 100 µM
TGI [21]: > 100 µM
TGI [22]: > 100 µM
TGI [23]: > 100 µM
TGI [24]: > 100 µM
TGI [25]: > 100 µM
TGI [26]: > 100 µM
TGI [27]: > 100 µM
TGI [28]: > 100 µM
TGI [29]: > 100 µM
TGI [30]: > 100 µM
TGI [31]: > 100 µM
TGI [32]: > 100 µM
TGI [33]: > 100 µM
TGI [34]: > 100 µM
TGI [35]: > 100 µM
TGI [36]: > 100 µM
TGI [37]: > 100 µM
TGI [38]: > 100 µM
TGI [39]: > 100 µM
TGI [40]: > 100 µM
TGI [41]: > 100 µM
TGI [42]: > 100 µM
TGI [43]: > 100 µM
TGI [44]: > 100 µM
TGI [45]: > 100 µM
TGI [46]: > 100 µM
TGI [47]: > 100 µM
TGI [48]: > 100 µM
TGI [49]: > 100 µM
TGI [50]: > 100 µM
TGI [51]: > 100 µM
TGI [52]: 60 µM
TGI [53]: > 100 µM
TGI [54]: > 100 µM
TGI [55]: > 100 µM
TGI [56]: > 100 µM
TGI [57]: > 100 µM
TGI [58]: > 100 µM

CC(C)(C)c1cc(OCc2nnc3sc(-c4ccc(Cl)cc4)nn23)c(Cl)cc1OCc1nnc2sc(-c3ccc(Cl)cc3)nn12
TGI [1]: 20.4 µM
TGI [2]: 51.4 µM
TGI [3]: 11.4 µM
TGI [4]: > 100 µM
TGI [5]: 18.2 µM
TGI [6]: 26.1 µM
TGI [7]: 19.3 µM
TGI [8]: 19.8 µM
TGI [9]: 11.1 µM
TGI [10]: 88.6 µM
TGI [11]: 34.6 µM
TGI [12]: 33.3 µM
TGI [13]: 3.47 µM
TGI [14]: 26 µM
TGI [16]: 12.9 µM
TGI [17]: 38.8 µM
TGI [18]: 20.6 µM
TGI [19]: 28.7 µM
TGI [20]: 29.9 µM
TGI [21]: 15.2 µM
TGI [22]: 26.1 µM
TGI [23]: 23.6 µM
TGI [24]: 14.9 µM
TGI [25]: 57.8 µM
TGI [26]: 12.5 µM
TGI [27]: 54.2 µM
TGI [28]: 21.4 µM
TGI [29]: 88.9 µM
TGI [30]: 9.72 µM
TGI [31]: 7.36 µM
TGI [32]: 32.9 µM
TGI [33]: 44.9 µM
TGI [34]: 54.3 µM
TGI [35]: 97.9 µM
TGI [36]: > 100 µM
TGI [37]: 31.2 µM
TGI [38]: 24.4 µM
TGI [39]: 35.6 µM
TGI [40]: 9.8 µM
TGI [41]: 40.7 µM
TGI [59]: 38.3 µM
TGI [42]: 10.9 µM
TGI [43]: 83.6 µM
TGI [44]: > 100 µM
TGI [45]: 3.46 µM
TGI [46]: 27 µM
TGI [48]: 2.91 µM
TGI [49]: 21.8 µM
TGI [50]: 39.1 µM
TGI [51]: 16.5 µM
TGI [52]: 36.8 µM
TGI [53]: 16.3 µM
TGI [54]: 31.3 µM
TGI [55]: > 100 µM
TGI [56]: 8.73 µM
TGI [57]: 29.3 µM
TGI [58]: 87.6 µM

CC1(C)CN=C(Nc2ccc(F)cc2)S1
TGI [1]: > 100 µM
TGI [2]: > 100 µM
TGI [3]: > 100 µM
TGI [4]: > 100 µM
TGI [5]: > 100 µM
TGI [6]: > 100 µM
TGI [7]: > 100 µM
TGI [8]: > 100 µM
TGI [9]: > 100 µM
TGI [10]: > 100 µM
TGI [11]: > 100 µM
TGI [12]: > 100 µM
TGI [13]: > 100 µM
TGI [14]: > 100 µM
TGI [15]: > 100 µM
TGI [17]: > 100 µM
TGI [18]: > 100 µM
TGI [19]: > 100 µM
TGI [20]: > 100 µM
TGI [21]: > 100 µM
TGI [23]: > 100 µM
TGI [24]: > 100 µM
TGI [25]: > 100 µM
TGI [26]: > 100 µM
TGI [27]: > 100 µM
TGI [28]: > 100 µM
TGI [29]: > 100 µM
TGI [30]: > 100 µM
TGI [31]: > 100 µM
TGI [32]: > 100 µM
TGI [33]: > 100 µM
TGI [34]: > 100 µM
TGI [35]: > 100 µM
TGI [36]: > 100 µM
TGI [37]: > 100 µM
TGI [38]: > 100 µM
TGI [39]: > 100 µM
TGI [40]: > 100 µM
TGI [41]: > 100 µM
TGI [42]: > 100 µM
TGI [43]: > 100 µM
TGI [44]: > 100 µM
TGI [45]: > 100 µM
TGI [46]: > 100 µM
TGI [47]: > 100 µM
TGI [48]: > 100 µM
TGI [49]: > 100 µM
TGI [50]: > 100 µM
TGI [51]: > 100 µM
TGI [52]: > 100 µM
TGI [53]: > 100 µM
TGI [54]: > 100 µM
TGI [55]: > 100 µM
TGI [56]: > 100 µM
TGI [57]: > 100 µM
TGI [58]: > 100 µM

— PubChem BioAssay (NCI)
